Assay results published in PMC11296140, “Cardenolides in the defensive fluid of adult large milkweed bugs have differential potency on vertebrate and invertebrate predator Na^+/K^+-ATPases” (Royal Society Open Science, 2024).

What was measured:
[1] = biological target: giant Asian mantid Na^+/K^+-ATPase; assay: Na+/K+-ATPase inhibition assay, giant Asian mantid neural tissue lysate; format: biochemical, Hierodula membranacea; settings: for IC50: giant Asian mantid enzyme, toxicity criteria of Agrawal et al.; for potency compared with the porcine enzyme (in words): giant Asian mantid vs pig, log10 IC50, Tukey post hoc
Experimental: Hierodula membranacea were obtained from M&M Wust—Mantids and More (Muhlheim am Main, Germany). Twenty-five individuals were obtained at the L4 stage and reared in individually double-ventilated boxes (19 × 19 × 19 cm). We provided them with greenbottle fly pupae as a food source, twice per week (two pupae during the nymph stages and three when they reached the adult stage). Mantids were sprayed with water every 2 days for hydration. The mantids were kept in an incubator (Snijders Scientific premium, Tilburg, The Netherlands, with an Imago 500 JUMO controller, Fulda, Germany) at 28°C and 70% humidity with an 18 L : 6 D cycle and a temperature of 18°C at night.
(§1) Preparations of Na^+/K^+-ATPases were obtained by homogenization of dissected brains (T. castanotis, zebra finch, and H. membranacea, giant Asian mantid), from commercially obtained enzyme (Sus scrofa domesticus, domestic pig), and expression of ATP1A1 and ATP1B1 subunits of the Na^+/K^+-ATPase of the black-headed grosbeak in insect Sf9 cells (Invitrogen).
(§2) We sliced and weighed 5 mg from three different zebra finch brains and dissected the head capsule of five female giant Asian mantids to obtain the central body with intact optic lobes. Neural tissues were transferred to a 1 ml glass grinder (Wheaton Dounce tissue grinder, 1 ml, no. 357538) and homogenized in 500 μl distilled water. Zebra finch homogenates were transferred to a 50 ml Falcon tube on ice and resuspended with 15 ml resuspension buffer (0.25 M sucrose, 2 mM ethylenediaminetetraacetic acid and 25 mM HEPES/Tris; pH 7.0). Samples were sonicated at 85 W (Fisherbrand Model 120 Sonic Dismembrator, no. 12337338) for three 45 s intervals at 0°C, followed by centrifugation for 30 min at 10 000g (Sigma 3–18K, no. 10290) at 4°C to remove debris. The supernatant was collected and further centrifuged for 60 min at 100 000g at 4°C (Optima Max-XP tabletop ultracentrifuge, no. 393315) to isolate the membrane fraction. The pelleted membranes were washed twice and resuspended in 1 ml Milli-Q water (Milli-Q direct water purification system, Merck, no. C85358) and stored at −20°C. Giant Asian mantid homogenates were frozen to −80°C and then freeze-dried overnight and then resuspended in 1800 μl distilled water. Each sample was divided into aliquots of 600 μl and sonicated twice in an ice water bath (Bandelin Sonorex, no. Z659584) for 5 min. Samples were centrifuged at 3000 r.p.m. for 5 min and used to perform functional assays.
(§3) The inhibitory effects of increasing concentrations of four cardenolides (ouabain, glucopyranosyl frugoside, frugoside and gofruside) on the black-headed grosbeak, zebra finch and giant Asian mantids were determined by photometric measurement of inorganic phosphate released from enzymatic ATP hydrolysis while subtracting the background ATPase activity following Petschenka et al. (see the electronic supplementary material, method S2e). The assessment of the inhibitory impact of glucopyranosyl calotropin was limited to the black-headed grosbeak and zebra finch species. This stemmed from the restricted availability of the compound, which only permitted testing on two predator pumps. The inhibitory effects of the five compounds for the porcine ATPase were taken from Rubiano-Buitrago et al. for comparison. All assays were run in three biological replicates, and the average of two technical replicates of each biological replicate was used for subsequent statistical analyses. Raw data are available in the data repository.
For cardenolide inhibition, we converted the calibrated absorbance values to the percentage of non-inhibited Na^+/K^+-ATPase activity based on measurements from the control wells. We fitted inhibition curves by nonlinear fitting using a four-parameter logistic curve, with the top and bottom asymptotes set to 100 and 0, respectively, using the nlsLM function of the minipack.lm library in R [47]. […]

[2] = test system: O. fasciatus target site Na^+/K^+-ATPase; settings: cited from earlier work
[3] = biological target: zebra finch Na^+/K^+-ATPase; assay: Na+/K+-ATPase inhibition assay, zebra finch brain lysate; format: biochemical, Taeniopygia castanotis; settings: for IC50: zebra finch enzyme, toxicity criteria of Agrawal et al.
Experimental: Taeniopygia castanotis (zebra finch) brain tissues were obtained from a breeding colony at the University of St Andrews, UK, under Home Office licence 70/8159. Individual brains were dissected and flash-frozen on dry ice before being shipped from St Andrews to the Max Planck Institute for Chemical Ecology, Jena, Germany, where they were kept at −80°C until used in the assays.
as §1, §2, §3
For cardenolide inhibition, we converted the calibrated absorbance values to the percentage of non-inhibited Na^+/K^+-ATPase activity based on measurements from the control wells. We fitted inhibition curves by nonlinear fitting using a four-parameter logistic curve, with the top and bottom asymptotes set to 100 and 0, respectively, using the nlsLM function of the minipack.lm library in R [47]. From this we calculated the half maximal inhibitory concentration (IC50) values for each biological replicate. […]

[4] = test system: black-headed grosbeak Na^+/K^+-ATPase; assay: Na+/K+-ATPase inhibition assay, recombinant black-headed grosbeak enzyme expressed in Sf9 cells; format: biochemical, Pheucticus melanocephalus; settings: for IC50: black-headed grosbeak enzyme, toxicity criteria of Agrawal et al.; for times less inhibitory than for pig: black-headed grosbeak vs porcine enzyme, IC50 fold difference
Description: Pheucticus melanocephalus (black-headed grosbeak) ATPA1 and ATPB1 genes were synthesised (GeneArt; Invitrogen), codon optimised for Spodoptera frugiperda and cloned by GeneArt (Invitrogen) in pFastBac Dual plasmid with ATP1B1 under p10 promoter and ATP1A1 under PPH promoter. Final plasmids were verified by sequencing (accession number 196465).
as §1
Recombinant Na^+/K^+-ATPases were expressed after infection of Sf9 cells with P0 virus stock following the optimized baculovirus expression system described by Scholz and Suppmann. The cells were pelleted by centrifugation, resuspended and sonicated to disrupt membranes and further centrifuged to remove cell debris. Cell membranes were pelleted by ultracentrifugation of the supernatant and finally resuspended in Milli-Q water (electronic supplementary material, method S2). Prior to the Na^+/K^+-ATPase inhibition assay, the black-headed grosbeak protein was verified by SDS–PAGE/Western blotting following the methods of Mohammadi et al. (see the electronic supplementary material, figure S1) and quantified by ELISA (see the electronic supplementary material, method S2d).
as §3
For cardenolide inhibition, we converted the calibrated absorbance values to the percentage of non-inhibited Na^+/K^+-ATPase activity based on measurements from the control wells. We fitted inhibition curves by nonlinear fitting using a four-parameter logistic curve, with the top and bottom asymptotes set to 100 and 0, respectively, using the nlsLM function of the minipack.lm library in R [47]. From this we calculated the half maximal inhibitory concentration (IC50) values for each biological replicate. We compared the log10 IC50 values of individual cardenolides for each Na^+/K^+-ATPase enzyme using a linear model, testing the interaction between predator enzyme and cardenolide, and compared the inhibitory capacity of each compound pairwise using Tukey’s post hoc test. We calculated the fold differences between the IC50 values of individual cardenolides for black-headed grosbeak, zebra finch and giant Asian mantid versus the IC50 values on the porcine enzyme.

[5] = zebra finch vs porcine enzyme, IC50 fold difference

Question: For C[C@H]1OC(O[C@H]2CC[C@@]3(CO)[C@H](CC[C@@H]4[C@@H]3CC[C@]3(C)[C@@H](C5=CC(=O)OC5)CC[C@]43O)C2)[C@H](O)[C@H](O)[C@@H]1O (stereo partly drawn) [frugoside], which IC50 [1] is on record?
Answer: < 1000 nM

Question: What about the “potency compared with the porcine enzyme (in words)” value [1] of the same compound?
Answer: not significantly different in potency

Question: And the “potency towards the bug's own target site (in words)” value [2]?
Answer: the most inhibitory

Question: And the IC50 [3]?
Answer: < 1000 nM

Question: What about the “times less inhibitory than for pig” value [3, 5] of the same compound?
Answer: 2.6 times

Question: And the IC50 [4]?
Answer: < 10000 nM

Question: And the “times less inhibitory than for pig” value [4]?
Answer: 6.8 times

Question: Which “times less inhibitory than for pig” value ([1]; giant Asian mantid vs porcine enzyme, IC50 fold difference) does the source give for C[C@@H]1O[C@@H](O[C@H]2C[C@@H](O)[C@]3(CO)[C@H]4[C@H](O)C[C@]5(C)[C@@H](C6=CC(=O)OC6)CC[C@]5(O)[C@@H]4CC[C@]3(O)C2)[C@H](O)[C@H](O)[C@H]1O [ouabain, reference compound] here?
Answer: 4.3 times

Question: And the “times less inhibitory than for pig” value [3, 5]?
Answer: 6.8 times

Question: What about the “times less inhibitory than for pig” value [4] of the same compound?
Answer: 18.9 times

Question: Which “inhibition of the enzyme (in words)” value ([3]; sensitive vertebrate enzymes) does the source give for glucopyranosyl calotropin here?
Answer: effective inhibitor

Question: What about the “times less inhibitory than for pig” value [3, 5] of the same compound?
Answer: 3.4 times

Question: And the “times less inhibitory than for pig” value [4]?
Answer: 15.1 times

Question: Which “times more inhibitory than to pig” value ([1]; giant Asian mantid vs porcine enzyme, IC50 fold difference, not significant at alpha 0.05) does the source give for glucopyranosyl frugoside here?
Answer: 2.3 times

Question: And the IC50 [3]?
Answer: < 1000 nM

Question: And the “times more inhibitory than to pig” value [3, 5]?
Answer: 28.3 times

Question: What about the IC50 [4] of the same compound?
Answer: < 10000 nM

Question: What about the “potency compared with the porcine enzyme (in words)” value ([4]; black-headed grosbeak vs pig, log10 IC50, Tukey post hoc) of the same compound?
Answer: not significantly different in potency

Question: For gofruside, which IC50 [1] is on record?
Answer: < 1000 nM

Question: What about the “potency compared with the porcine enzyme (in words)” value [1] of the same compound?
Answer: did not differ in inhibitory potential

Question: What about the “potency towards the bug's own target site (in words)” value [2] of the same compound?
Answer: among the weakest inhibitors

Question: And the “times less inhibitory than for pig” value [3, 5]?
Answer: 12.7 times

Question: And the “times less inhibitory than for pig” value [4]?
Answer: 352.5 times

Question: What about the “inhibition of the enzyme (in words)” value ([4]; putatively resistant vertebrate predator) of the same compound?
Answer: weakest inhibitor
